In the supplement of paper PMC10307832:

Legend:
Assay in all cases: relative viability (nuclei count vs DMSO), 5 days (fraction); higher = more cells survive
Lestaurtinib + Lapatinib = compound: C[C@]12O[C@H](C[C@]1(O)CO)n1c3ccccc3c3c4c(c5c6ccccc6n2c5c31)CNC4=O [Lestaurtinib] + CS(=O)(=O)CCNCc1ccc(-c2ccc3ncnc(Nc4ccc(OCc5cccc(F)c5)c(Cl)c4)c3c2)o1 [Lapatinib] (partner 2 µM)
How it was run: (§1)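 The day after seeding in 1536-well plates, lung cancer cell lines were treated by pin tool with a single drug, or with a fixed anchor-drug dose together with five library-drug doses (not always all listed) in √10 steps. After 5 days, a combined fix-and-stain solution (final 0.05% Triton X-100, 1% formaldehyde, 1 ug/ml Hoechst) was added. Nuclei counted on 4× images gave relative viability as treated counts over vehicle counts, reported as the median of duplicate plates.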

[1] = compound: C1/C(=C\C2=CC=CS2)/C(=O)/C(=C/C3=CC=CS3)/C1 + N=C(N)NC(=N)NCCc1ccccc1 [Phenformin] (partner 250 µM)
How it was run: as §1

TPCA-1 + Alpelisib = compound: C1=CC(=CC=C1C2=CC(=C(S2)NC(=O)N)C(=O)N)F [TPCA-1] + Cc1nc(NC(=O)N2CCC[C@H]2C(N)=O)sc1-c1ccnc(C(C)(C)C(F)(F)F)c1 [Alpelisib] (partner 2 µM)
How it was run: as §1

[2] = compound: C1/C(=C\C2=CC=CS2)/C(=O)/C(=C/C3=CC=CS3)/C1 + Nc1ncn([C@H]2C[C@H](O)[C@@H](CO)O2)c(=O)n1 [Decitabine] (partner 2 µM)
How it was run: as §1

Row | Cell Line | relative viability (Lestaurtinib + Lapatinib; first compound 0.005 µM) | relative viability (Lestaurtinib + Lapatinib; first compound 0.01581 µM) | relative viability (Lestaurtinib + Lapatinib; first compound 0.05 µM) | relative viability (Lestaurtinib + Lapatinib; first compound 0.1581 µM) | relative viability (Lestaurtinib + Lapatinib; first compound 0.5 µM) | relative viability ([1]; first compound 0.2 µM) | relative viability ([1]; first compound 0.6325 µM) | relative viability ([1]; first compound 2 µM) | relative viability ([1]; first compound 6.325 µM) | relative viability ([1]; first compound 20 µM) | relative viability (TPCA-1 + Alpelisib; first compound 0.04 µM) | relative viability (TPCA-1 + Alpelisib; first compound 0.1265 µM) | relative viability (TPCA-1 + Alpelisib; first compound 0.4 µM) | relative viability (TPCA-1 + Alpelisib; first compound 1.265 µM) | relative viability (TPCA-1 + Alpelisib; first compound 4 µM) | relative viability ([2]; first compound 0.2 µM) | relative viability ([2]; first compound 0.6325 µM) | relative viability ([2]; first compound 2 µM) | relative viability ([2]; first compound 6.325 µM) | relative viability ([2]; first compound 20 µM)
1 | HCC-366 | 1.16 | 1.16 | 0.79 | 1 | 0.0272 | 0.569 | 0.638 | 0.625 | 0.55 | 0.613 | 0.481 | 0.362 | 0.352 | 0.378 | 0.185 | 0.296 | 0.329 | 0.341 | 0.369 | 0.336
2 | NCI-H2347 | 0.938 | 0.968 | 0.871 | 0.65 | 0.613 | 0.362 | 0.592 | 0.283 | – | 0.49 | 1.14 | 0.969 | 1.03 | 0.817 | 0.917 | 0.689 | 0.581 | 0.628 | 0.57 | 0.633
3 | A549 | 1.1 | 0.972 | 0.447 | 0.132 | 0.0697 | 0.208 | 0.196 | 0.154 | – | 0.17 | 0.891 | 0.824 | 0.911 | 0.736 | 0.296 | 0.281 | 0.295 | 0.237 | 0.384 | 0.229
4 | LXF-289 | 0.867 | 0.917 | 0.713 | 0.769 | 0.375 | 0.553 | 0.536 | 0.554 | 0.459 | 0.513 | 1.07 | 0.951 | 1.05 | 0.955 | 0.783 | 0.371 | 0.386 | 0.355 | 0.373 | 0.344
5 | NCI-H1793 | 0.927 | 0.907 | 0.467 | 0.441 | 0.235 | 0.375 | 0.351 | 0.515 | 0.337 | 0.355 | 0.724 | 0.646 | 0.735 | 0.828 | 0.566 | 0.526 | 0.554 | 0.614 | 0.305 | 0.469
6 | LU99A | 0.839 | 0.627 | 0.446 | 0.38 | 0.213 | 0.771 | 0.819 | 0.857 | 0.819 | 0.801 | 0.564 | 0.445 | 0.5 | 0.388 | 0.243 | 0.878 | 0.969 | 0.982 | 0.629 | 0.866
7 | PC-14 | 0.437 | 0.378 | 0.325 | 0.286 | 0.31 | 0.823 | 0.762 | 0.611 | 0.539 | 0.631 | 0.952 | 0.879 | 0.965 | 0.787 | 0.75 | 0.224 | 0.242 | 0.233 | 0.2 | 0.216
8 | NCI-H2085 | 0.812 | 0.89 | 0.871 | 0.667 | 0.433 | 0.81 | 0.791 | 0.839 | 0.619 | 0.644 | 0.935 | 0.903 | 1 | 0.939 | 0.933 | 0.56 | 0.544 | 0.597 | 0.498 | 0.508
9 | NCI-H2170 | 0.267 | 0.248 | 0.273 | 0.238 | 0.201 | 0.466 | 0.484 | 0.426 | 0.405 | 0.408 | 0.906 | 0.697 | 0.803 | 0.733 | 0.526 | 0.439 | 0.436 | 0.466 | 0.466 | 0.479
10 | HCC-78 | 0.507 | 1.03 | 0.54 | 0.272 | 0.289 | 0.654 | 0.78 | 0.945 | 0.603 | 0.695 | 0.36 | 0.315 | 0.362 | 0.311 | 0.262 | 0.653 | 0.763 | 0.755 | 0.714 | 0.686
11 | NCI-H1395 | 1.15 | 1.26 | 0.848 | 0.853 | 0.416 | 0.448 | 0.484 | 0.505 | 0.483 | 0.465 | 1.16 | 0.997 | 1.14 | 1.07 | 0.941 | 0.729 | 0.777 | 0.754 | 0.679 | 0.729
12 | NCI-H2126 | 0.821 | 0.901 | 0.613 | 0.81 | 0.552 | 0.549 | 0.551 | 0.566 | 0.483 | 0.536 | 0.759 | 0.673 | 0.753 | 0.786 | 0.596 | 0.564 | 0.624 | 0.547 | 0.582 | 0.587
13 | H3255 | 0.2 | 0.175 | 0.243 | 0.18 | 0.112 | 0.377 | 0.324 | 0.352 | 0.34 | 0.309 | 0.784 | 0.655 | 0.642 | 0.529 | 0.554 | 0.81 | 0.538 | 0.527 | 0.55 | 0.494
14 | HCC-15 | 0.931 | 1.05 | 0.8 | 0.545 | 0.135 | 0.516 | 0.467 | 0.545 | 0.445 | 0.442 | 0.862 | 0.705 | 0.915 | 0.863 | 0.779 | 0.677 | 0.688 | 0.661 | 0.619 | 0.609
15 | NCI-H661 | 0.466 | 0.608 | 0.444 | 0.444 | 0.323 | 0.288 | 0.259 | 0.275 | 0.253 | 0.307 | 1.01 | 0.2 | 0.768 | 0.546 | 0.487 | 0.605 | 0.567 | 0.56 | 0.475 | 0.496
